From patent publication US20250295678A1, “ULTRA LOW DOSAGE ZOLEDRONIC ACID FOR TREATMENT OF RETINAL DISEASE” (The Regents of the University of California, priority 2022, published 2025)
Entries after “also recorded” stand apart in the source; their conditions may differ.

Experiments:
primary RPE cultures = experiment: Ceramide in primary RPE cultures treated with adiporon; assay type: cell-based, porcine; conditions: 0.01-1 μM, 3 h
[1] = test system: polarized primary RPE cultures; experiment: Complement-mediated mitochondrial fragmentation in polarized primary RPE monolayers (A2E + NHS, MitoTracker live imaging); assay type: cell-based, porcine
Experimental: Highly differentiated polarized primary RPE cultures were established from freshly harvested porcine eyes as described (Toops et al., 2014). To induce complement-mediate mitochondrial injury, RPE monolayers were treated with the lipofuscin bisretinoid A2E, which compromises mechanisms that protect the RPE from complement activation (Tan et al., 2016). RPE cells were exposed to active complement components (10% normal human serum, NHS, for 10 min at 37° C.) to induce complement activation on the RPE cell surface. […] After NHS exposure, cells were treated with 1 μM zoledronic acid for 3 h. RPE mitochondria were labeled with MitoTracker Deep Red and cells were imaged live on a Nikon spinning disc confocal microscopy as we have described (Tan et al., 2016; La Cunza et al., 2021). Mitochondrial surfaces were reconstructed from 4-dimensional images using Imaris (Bitplane).
Highly differentiated polarized primary RPE cultures were established from freshly harvested porcine eyes as described (Toops et al., 2014). To induce complement-mediate mitochondrial injury, RPE monolayers were treated with the lipofuscin bisretinoid A2E, which compromises mechanisms that protect the RPE from complement activation (Tan et al., 2016). RPE cells were exposed to active complement components (10% normal human serum, NHS, for 10 min at 37° C.) to induce complement activation on the RPE cell surface. […]

[2] = molecular target: T1, acid sphingomyelinase (ASM) (Homo sapiens, UniProt P17405); conditions: functional ASM inhibitor, prior publication; cited from earlier work
T1 sequence (P17405 47-631): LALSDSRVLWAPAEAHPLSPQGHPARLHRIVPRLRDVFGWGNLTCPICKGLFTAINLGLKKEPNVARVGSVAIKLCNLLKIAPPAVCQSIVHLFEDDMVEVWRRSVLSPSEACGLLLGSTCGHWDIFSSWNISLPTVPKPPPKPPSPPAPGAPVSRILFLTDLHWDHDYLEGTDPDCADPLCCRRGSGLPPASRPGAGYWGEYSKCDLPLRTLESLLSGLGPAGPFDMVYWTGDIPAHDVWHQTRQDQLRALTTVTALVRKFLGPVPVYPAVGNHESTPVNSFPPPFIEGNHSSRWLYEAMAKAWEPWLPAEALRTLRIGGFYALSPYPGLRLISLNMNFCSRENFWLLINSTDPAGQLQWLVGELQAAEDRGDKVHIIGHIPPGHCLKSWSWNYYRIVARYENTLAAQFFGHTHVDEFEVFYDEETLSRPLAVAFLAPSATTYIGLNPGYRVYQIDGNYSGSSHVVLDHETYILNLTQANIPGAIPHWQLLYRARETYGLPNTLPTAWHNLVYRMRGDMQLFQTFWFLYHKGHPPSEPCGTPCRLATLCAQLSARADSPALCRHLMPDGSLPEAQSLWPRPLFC

SMILES | ceramide in primary RPE cultures (primary RPE cultures) | complement-mediated mitochondrial fragmentation in the RPE in vitro ([1]; 1 μM for 3 h after NHS exposure (FIG. 5, FIG. 9)) | complement-induced mitochondrial injury in primary RPE cultures ([1]; 0.01-1 μM, 3 h (0.01 μM data not shown)) | ceramide accumulation (prior work) [2]
O=C(COc1ccc(C(=O)c2ccccc2)cc1)NC1CCN(Cc2ccccc2)CC1 [adiporon] | effective in decreasing ceramide | prevented complement-mediated mitochondrial fragmentation | preventing complement-induced mitochondrial injury | 
CNCCCN1c2ccccc2CCc2ccccc21 [desipramine] |  |  |  | decreases ceramide alone; also recorded: can effectively inhibit ceramide accumulation
